Laboratory results from paper PMC9555642 (PLoS ONE, 2022).

Assays:
COPD HBEC ALI cultures [1] = experiment: RNA analysis (qPCR), TNF challenge; type: cell-based, human
Procedure: TEER and permeability were measured after seven days.
To study transcriptional changes, RNA purification was carried out using the RNeasy Plus 96 kit (74192) (Qiagen, Venlo, The Netherlands) according to manufacturer’s protocol. The liquid was collected and frozen at –80°C until further analysis. RNA was quantified and cDNA synthesis was performed according to standard procedures using High-capacity cDNA Reverse Transcription Kit (4368813) (ThermoFisher, Waltham, MA, US). Real-time polymerase chain reaction (qPCR) was done using validated TaqMan® Gene Expression Assays (ThermoFisher, Waltham, MA, US), IL8 (Hs00174103_m1), CCL2 (Hs00234140_m1), CXCL10 (Hs00171042_m1), MMP9 (Hs00957562_m1), IL1B (Hs01555410_m1), MUC5AC (Hs01365616_m1), MUC5B (Hs00861595_m1) with TaqMan Fast Advanced Master Mix (4444557) (Applied Biosystems, Foster City, CA, US). Samples were run in triplicates and analyzed on the QuantStudio^TM 7 Flex Real-Time PCR 384-well System (ThermoFisher Waltham, MA, US). Data was normalized to the housekeeping genes GAPDH (Hs99999905_m1), and RPLP0 (Hs99999902_m1) and delta-delta CT values were plotted (fold change to DMSO).

COPD HBEC ALI cultures [2] = experiment: Western blot of membrane protein from ALI cell cultures; type: cell-based, human; details: 10 μM, TNF-challenged, four COPD donors, trend observed
Procedure: For extraction of membrane and cytosol proteins the cells were lysed according to the Mem-PER Plus Membrane Protein Kit protocol (#89842, ThermoFisher Scientific). The supernatants were kept frozen in −80°C until total protein quantification. Quantification of total protein in the lysates was done using Pierce BCA Protein Assay Kit (#23227, Thermo Scientific) following the manufacturer´s instructions. Lysates containing 8 μg total protein were mixed with NuPAGE LDS Sample buffer 4x (NP007, Invitrogen), NuPAGE Sample Reducing Agent 10x (NP004, Invitrogen) and deionized water and then heated for ten minutes at 70°C. The samples were loaded onto NuPAGE 4–12% Bis-Tris Gels (NP0335, Invitrogen) and run at 120V for 100 minutes in NuPAGE MOPS SDS Running buffer (NP0001, Invitrogen). The proteins were transferred to nitrocellulose membranes (LC2001, Invitrogen) at 35 mA overnight using NuPAGE Transfer buffer (NP0006, Invitrogen) supplemented with 20% methanol. The membranes were stained with Revert Total Protein Stain (926–11011, LI-COR Biosciences) for five minutes, washed and then imaged in the 700 nm channel using Odyssey CLX imaging system (LI-COR Biosciences). To correct for variation in loading the total signal intensity of all proteins in each lane were used for normalization. An inter-membrane control sample was loaded to all gels to assure there were no differences due to methodology between the blots. The stain was removed with Revert Destaining Solution (926–11013, LI-COR Biosciences) and the membranes were blocked in Intercept (TBS) Blocking Buffer (927–60001, LI-COR Biosciences) for one hour on a shaker. […] After a final wash, three times for ten minutes in TBS-T, the fluorescent signals were detected using the Odyssey CLX imaging system and the signals were analysed using Image Studio software (v4.0, LI-COR Biosciences).

[3] = high concentrations of TNF, 8 days
[4] = unchallenged cells and 5 ng/ml TNF

ACY-1083
CXCL10 transcripts (COPD HBEC ALI cultures [1]; [3]): significantly reduced
IL1B transcripts (COPD HBEC ALI cultures [1]; [3]): significantly reduced
IL6 transcripts (COPD HBEC ALI cultures [1]; [3]): significantly reduced
MMP9 transcripts (COPD HBEC ALI cultures [1]; [3]): significantly reduced
MUC5AC mRNA (COPD HBEC ALI cultures [1]; higher concentrations of TNF): no significant effect
MUC5B mRNA (COPD HBEC ALI cultures [1]; higher concentrations of TNF): no significant effect
MUC5AC mRNA (COPD HBEC ALI cultures [1]; [4]): reduced baseline production
MUC5B mRNA (COPD HBEC ALI cultures [1]; [4]): reduced baseline production
E-cadherin level in membrane fraction (COPD HBEC ALI cultures [2]): not significantly higher
Occludin level in membrane fraction (COPD HBEC ALI cultures [2]): not significantly higher
β-catenin level in membrane fraction (COPD HBEC ALI cultures [2]): not significantly higher
